The values that follow come from patent publication US5519008A, “Derivatives of triterpenoid acids as inhibitors of cell-adhesion molecules ELAM-1 (E-selectin) and LECAM-1 (L-selectin)” (Glycomed Incorporated, priority 1992, dated 1996).

Data set [1] concerns arachidonic acid (AA), murine skin inflammation. Kind of data set: arachidonic acid (AA) murine skin (ear) inflammation model. The data set is classed as in vivo. The settings on record: 10 μl of 100mg/ml solution applied to the ear immediately after AA; 6mm ear disk weighed 90 minutes later; average of 6 experiments. On the procedure:
For comparison, glycyrrhetinic acid was also tested. […] 10 μl of each compound was applied to the ear. […] 90 minutes later a 6mm disk of each ear was removed, and weighed. […] The results were the average of 6 experiments.

The conditions of data set [2]: literature statement, Baren et al., J. Med. Chem. 17(2) (1974) 184-191; cited from earlier work.

Take “3β-O-(α-L-fucopyranosyl)-18β-olean-12-en-30-oic Acid [3-0-fucoside-18-β glycyrrhetinic acid]”: the “reduction of the % maximal inflammatory response caused by AA alone” value in data set [1] is “about 60%”.
As for `CC1(C)[C@@H](O)CC[C@]2(C)[C@H]3CC=C4[C@@H]5C[C@@](C)(C(=O)O)CC[C@]5(C)CC[C@@]4(C)[C@]3(C)CC[C@@H]12` [11-deoxoglycyrrhetinic acid], in data set [2], the “aldosterone (DCA)-like activity” value was “does not substantially show the DCA activity”.
For `CC1(C)[C@@H](O)CC[C@]2(C)[C@H]3C(=O)C=C4[C@@H]5C[C@@](C)(C(=O)O)CC[C@]5(C)CC[C@@]4(C)[C@]3(C)CC[C@@H]12` [glycyrrhetinic acid], in data set [1], the “reduction of the % maximal inflammatory response caused by AA alone” value was “about 60%”.
